According to PubChem BioAssay AID179 (DTP/NCI, 2004):
The source made the active and inactive calls.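 The calls were made as follows: active = compounds giving half or more protection of infected cells from virus-caused growth loss, again on retest; inactive = the rest.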 *1 amine or outer side, *2 acyl side, *3 side chain or, on linkers, in order; H or OH if unused. Where a SMILES comes first, the peptide text is derived from it. [ ]: non-standard residue; d: D form. The star is where a group is joined. X3 = CC(=O)N(C)SCC(N[*:1])C(=O)[*:2]; X11 = Clc1c(Cl)c(Cl)c(O*)c(Cl)c1Cl; Chg = N[CH](C(=O)O)C1CCCCC1; Cbz = O=C(OCc1ccccc1)*; Boc = CC(C)(C)OC(=O)*; OBn = c1ccc(CO*)cc1; Bn = c1ccc(C*)cc1; For = O=C*

System: CEM cells HIV-1 protection, formazan growth assay
Experiment: NCI AIDS Antiviral Assay
Conditions: for IC50: measured here: growth of uninfected CEM cells
How it was run: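 Steps: treat uninfected and HIV-1-infected human CEM cells at five drug levels; quantify growth by soluble formazan; retest any compound reaching 50% protection; classify actives from the retest.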

Cc1c(Cl)cccc1NC(=O)CC1C(=O)Nc2ccccc2S1(=O)=O (centres undefined)
EC50: > 5.25 µM | IC50: > 5.25 µM

Cn1c2ccccc2n2c(=O)c(-c3ccc(O)cc3)nnc12
EC50: > 200 µM | IC50: > 200 µM

COC(=O)C(Cc1c[nH]c2ccccc12)NC(=O)C(Cc1c[nH]c2ccccc12)NC(=O)C(Cc1c[nH]c2ccccc12)NC(=O)C(Cc1c[nH]c2ccccc12)NC(=O)OC(C)(C)C (centres undefined) (Boc-WWWW-OMe; configuration not given here)
EC50: > 100 µM | IC50: 13.8 µM

COc1ccc(-c2nc(-c3cc4c(ccc5ccccc54)oc3=O)cs2)cc1
EC50: > 100 µM | IC50: > 100 µM

O=CN(c1ccccc1)c1c([N+](=O)[O-])cc([N+](=O)[O-])c2c1=NCN=2
EC50: > 79.4 µM | IC50: > 79.4 µM

C[C@]12CCCCC1(O)C[C@H](C(=O)O)CC2 (some centres undefined)
outcome: inactive

Cc1ccc(S(=O)(=O)SCc2ccccc2)cc1
EC50: > 67.6 µM | IC50: 5.62 µM

CC(=O)[O-].[Mn+3].[O-]c1ccccc1C=NCCNCCN=Cc1ccccc1[O-]
EC50: > 182 µM | IC50: 10.5 µM

CC(=O)N(C)SCC(NC(=O)C(Cc1ccccc1)NC(=O)OCc1ccccc1)C(=O)NC(Cc1ccccc1)C(=O)NC(Cc1cn(C=O)c2ccccc12)C(=O)NC(CCCCNC(=O)OCc1ccccc1)C(=O)NC(C(=O)NC(CSN(C)C(C)=O)C(=O)NC(C(N)=O)C(C)OCc1ccccc1)C(C)OCc1ccccc1 (centres undefined) (Cbz-F[X3]FW(For)K(Cbz)T(Bn)[X3]T(Bn)-NH2; configuration not given here)
EC50: > 100 µM | IC50: > 100 µM

CCc1cccc(C(C)(C)C)c1NC(=S)N/C=C(/C#N)C(N)=O
EC50: > 200 µM | IC50: 151 µM

CP1(=S)CC[C@H]2C3=C(CC[C@@H]21)CC(=O)CC3 (some centres undefined)
outcome: inactive

COC(=O)C(NC(=O)C(CC(=O)OCc1ccccc1)NC(=O)OCc1ccccc1)C1CCCCC1 (centres undefined) (Cbz-Asp(OBn)-[Chg]-OMe; configuration not given here)
EC50: > 200 µM | IC50: 105 µM

COC(=O)c1cc(/C=C/C(=O)Cc2ccccc2)cn1S(=O)(=O)c1ccccc1
EC50: > 200 µM | IC50: > 200 µM

N/N=C(\CC1OC(=O)c2ccccc21)c1ccco1 (centres undefined)
EC50: > 977 µM | IC50: 617 µM

CC1NC(=O)C(C)C(c2ccccc2)N(N=O)C1c1ccccc1 (centres undefined)
EC50: > 209 µM | IC50: 186 µM

CC(C)CC(NC(=O)C(CCC(=O)OCc1ccccc1)NC(=O)OC(C)(C)C)C(=O)NC(COCc1ccccc1)C(=O)NC(Cc1ccccc1)C(=O)Oc1c(Cl)c(Cl)c(Cl)c(Cl)c1Cl (centres undefined) (Boc-E(OBn)LS(Bn)F-X11; configuration not given here)
EC50: > 200 µM | IC50: 38.9 µM

Nc1nc(Cl)cc(NCC2(CO)CCCC2)n1
EC50: > 200 µM | IC50: 66.1 µM

Cc1nn(C(=O)Cc2ccccc2)c2c1C(c1ccccc1[N+](=O)[O-])SC(N)=N2 (centres undefined)
EC50: > 501 µM | IC50: 87.1 µM

Cc1ccc(S(=O)(=O)C(C#N)c2nc3ccccc3nc2N2CCOCC2)cc1 (centres undefined)
EC50: > 16.6 µM | IC50: > 16.6 µM

NNc1cn[nH]c(=O)c1Cl
EC50: > 200 µM | IC50: > 200 µM

CCOC(=O)NC(C(F)(F)F)(C(F)(F)F)P(=O)(OC(C)C)OC(C)C
EC50: > 200 µM | IC50: > 200 µM

O=C1c2ccccc2C(=O)c2sc(Nc3cccc(Cl)c3)nc21
EC50: > 5.89 µM | IC50: 3.39 µM

C1=C(c2ccccc2)C(OC2Oc3ccccc3C=C2c2ccccc2)Oc2ccccc21 (centres undefined)
EC50: > 31.6 µM | IC50: > 31.6 µM

CCCCCC/C=C\CCCCCCCCCc1cc(O)cc(OC)c1O
EC50: > 13.8 µM | IC50: 5.01 µM

COc1ccc2c(c1OC)C13CCCC[C@H]1C(C2)[N+](C)(C)CC3 (some centres undefined)
EC50: > 562 µM | IC50: > 562 µM

O=C(NCCCN1CC2CCCC2C1)C(c1ccccc1)c1ccccc1 (centres undefined)
EC50: > 200 µM | IC50: 39.8 µM

S=c1[nH]nc2ccccn12
EC50: > 200 µM | IC50: > 200 µM

NC(=S)NC/C=C/Cl
EC50: > 200 µM | IC50: > 200 µM

O=C1CSC(c2ccccc2Cl)N1N1C(=O)CSC1c1ccccc1Cl (centres undefined)
EC50: > 200 µM | IC50: 18.2 µM

CCOC(=O)C1CC=CC(NC(=O)OC(C)(C)C)C1(c1ccccc1)[N+](=O)[O-] (centres undefined)
outcome: inactive

Cc1nc2c(ccc3c(C)c(C)c(C)nc32)c(C)c1C.Cc1nc2c(ccc3c(C)c(C)c(C)nc32)c(C)c1C.O=C1OC(C(O)C[O-])C(O)=C1O.[Cu+]
EC50: > 12.6 µM | IC50: 0.692 µM

S=C(NNC1=NCCCCN1)Nc1ccc(Cl)cc1
EC50: > 200 µM | IC50: 18.6 µM

O=C(NN1CCOC1=O)OCCCl
EC50: > 200 µM | IC50: > 200 µM

Nc1c(N=Nc2ccc(/C=C/c3ccc(N=Nc4cc(S(=O)(=O)O)c5cccc(S(=O)(=O)O)c5c4N)cc3S(=O)(=O)O)c(S(=O)(=O)O)c2)cc(S(=O)(=O)O)c2cccc(S(=O)(=O)O)c12
EC50: 8.71 µM | IC50: 77.6 µM

Cc1[nH]nc2c1C(=O)C=C(N(CCO)c1ccccc1)C2=O
outcome: inactive

CC(=N/N=C/c1ccccn1)/C(C)=N/N=C(C)/C(C)=N/N=C(C)/C(C)=N/N=C(C)/C(C)=N\N=C\c1ccccn1
outcome: inactive

CC(=O)NC1COC(COC(=O)CCCCCCCCCCNC(=O)c2ccc([N+](=O)[O-])c3c(=O)c4ccccc4[nH]c23)C(O)C1OC(C)C(=O)NC(C(=O)NC(CCC(N)=O)C(=O)OCc1ccccc1)C(C)C (centres undefined)
EC50: > 9.55 µM | IC50: > 9.55 µM

CC[C@@H]1C2CC3C4N(C)c5ccccc5[C@]45C[C@@H](C2C5O)N3C1O (some centres undefined)
outcome: inactive

O=C1CN(CCN2CCOCC2)CC(=O)N2Cc3ccccc3CN12
EC50: > 200 µM | IC50: > 200 µM

O=C1C2CC3OC3CC2C(=O)N1CN1C(=O)C2CC3OC3CC2C1=O (centres undefined)
EC50: > 200 µM | IC50: > 200 µM
